Assay results from PMC9401491, “The Novel Nucleoside Analogue ProTide NUC-7738 Overcomes Cancer Resistance Mechanisms In Vitro and in a First-In-Human Phase I Clinical Trial” (Clinical Cancer Research, 2021).
pIC50: −log10 of the molar value. Where two headings read alike, the source gives them in different places.

Key:
[1] = test system: HAP1 cells; test: MTT cell viability, HAP1 cells; assay type: cell-based; details: Homo sapiens
Experimental: (§1) Cells (10^4) were seeded into 96-well plates and then treated with NUC-7738 (lot 5132/E00393/119) or 3′-dA (cordycepin, catalog no. C3394, lot 067M4182, Sigma) for 48 hours. One and a half milligrams per milliliter MTT (catalog no. M6494, Invitrogen) in a 1:1 ratio was added to cell culture media. After a 2-hour incubation at 37°C, media was removed and 70 μl of isopropanol was added. Optical densities at 570 nm were measured using POLARstar Omega plate reader. Readouts were normalized and IC50 values were calculated using a nonlinear regression model in Graphpad prism (v8.3.0). Each biological replicate (at least 3) was performed in 4 technical replicates to calculate the average IC50 value. To measure apoptosis, the Guava NexinReagent (Luminex Corp.) was used following manufacturer's instructions. Fluorescence staining was measured with an automated 96-well Guava easyCyte Flow Cytometer (Luminex Corp.).

[2] = test system: AGS; test: MTT cell viability, AGS; assay type: cell-based; details: Homo sapiens, 48 h
Experimental: as §1

[3] = test system: A498; test: MTT cell viability, A498; assay type: cell-based; details: Homo sapiens, A498, 48 h
Experimental: as §1

[4] = test system: Tera-1; test: MTT cell viability, Tera-1; assay type: cell-based
Experimental: as §1

[5] = design: method as in PMID 22833171, PMID 24419340; details: rat serum; cited from earlier work
[6] = test system: NCI-786; test: MTT cell viability, NCI-786; assay type: cell-based; details: 48 h
Experimental: as §1

C[C@H](NP(=O)(OC[C@@H]1C[C@@H](O)[C@H](n2cnc3c(N)ncnc32)O1)Oc1ccccc1)C(=O)OCc1ccccc1 (stereo partly drawn) [NUC-7738, 3′-deoxyadenosine-5′-O-phenyl-(benzyloxy-L-alaninyl)-phosphate]
pIC50 ([1]; HAP1, 48 h): 5.14 | IC90 ([1]; HAP1, 48 h): 54.2 µM | pIC50 ([1]; HAP1, read-out: IC50 concentration used for RNA-seq): 5.12 | IC90 ([1]; HAP1, read-out: IC90 concentration used for RNA-seq): 125 µM | pIC50 [2]: 4.95 | pIC50 [3]: 4.31 | pIC50 ([4]; 48 h): 5.36 | sensitivity to NUC-7738 compared with 3′-dA ([4]; Tera-1 teratocarcinoma): more than 40 fold | half-life in serum [5]: less than 2 minutes | pIC50 [6]: 4.31
